Reference: patent US20230232831A1, “MONOTERPENOID AND PHENYLPROPANOID CARBONATE ESTERS AND METHODS OF THEIR MAKING AND USE AS REPELLENTS” (IOWA STATE UNIVERSITY RESEARCH FOUNDATION, INC., priority 2020, published 2023)
Entries after “also recorded” stand apart in the source; their conditions may differ.

Columns and labels:
Type in all cases: in vivo
[1] = test system: Culex pipiens; experiment: Short-term spatial repellency, static air chamber; settings: for short-term repellency (result in words): 1 mL of 0.5% solution on filter paper, 15-150 min
Description: FIG. 4 is a graph showing the repellency observed when 1 mL of a 0.5% solution of each compound was applied to a filter paper, dried for 15 minutes, and placed at the treated end of the repellency chamber. FIG. 6 is a graph showing repellency of various compounds against the mosquito species Culex pipiens observed when 1 mL of a 0.5% solution of each compound was applied to a filter paper, dried for 15 minutes, and placed at the treated end of the repellency chamber. The static air chamber used for the repellency assay has been described previously (Klimavicz et al., “Monoterpenoid Isovalerate Esters as Long-lasting Spatial Mosquito Repellents,” In Advances in the Biorational Control of Medicaland Veterinary Pests, American Chemical Society: 2018; Vol. 1289, pp 205-217; Peterson et al., “Identification of Components of Osage Orange Fruit (Maclura pomifera) and Their Repellency to German Cockroaches,” J. Essent. Oil Res. 14:233-236 (2002), which are hereby incorporated by reference in their entirety). For each assay run, a 90-mm Whatman No. 1 filter paper was treated with 1 mL acetone solution containing 0.5% w/v of a carbonate ester. The filter paper was supported upon several pins during the addition of the acetone solution to diminish wicking of the solution away from the filter paper, and the solution was added over approximately thirty seconds to allow acetone to evaporate during the addition to prevent dripping. After the addition of the solution was complete, remaining acetone was permitted to evaporate for […] before testing. A 600-mm-long clear glass cylinder with an inner diameter of 85 mm and a single hole (20 mm diameter) halfway along the side of the cylinder was used for the repellency chamber. One end of the chamber was capped with a glass petri dish (inner diameter 90 mm) containing an untreated 90-mm Whatman No. 1 filter paper, while the other end was likewise covered with a similar petri dish containing the treated filter paper. Immediately after capping both ends of the chamber, 20 non-blood-fed female Culex pipiens mosquitoes were anesthetized with carbon dioxide, and placed into the repellency chamber through the hole in the side of the cylinder via a funnel. The hole was sealed, and the number of mosquitoes on the treated and untreated halves were recorded at 15, 30, 60, 90, 120, and 150 minutes after introduction of the mosquitoes to the chamber. All statistical analysis was performed in R. To determine repellency of a given compound, the number of repelled mosquitoes and the total number of mosquitos the chamber for each trial at a given time point were fit to a beta-binomial distribution to account for overdispersion in the estimated repellency. Because percentage repellency is bound between -100% (completely attracting) and 100% (completely repelling), percentage repellency shown with error bars representing 50% confidence intervals determined from a non-chance-corrected beta-binomial fit to the data, using an inverse link function equal to the psychometric function for the duo-trio test. Statistical significance was determined by nonoverlap of these confidence intervals. Estimates of the proportion of mosquitoes repelled in the chamber was then transformed to percentage repellency, which is expressed as […]

[2] = test system: Culex pipiens; experiment: Long-term repellency, treated filter paper placed in chamber 5 hours after application; settings: filter paper placed 5 hours after compound was applied
Description: FIG. 5 is a graph showing the repellency observed when 1 mL of each compound was applied to a filter paper placed at the treated end of the repellency chamber 5 hours after compound was applied. FIG. 8 is a graph showing the repellency of various compounds observed when 1 mL of each compound was applied to a filter paper placed at the treated end of the repellency chamber 5 hours after compound was applied. An array of older and newly synthesized carbonates was chosen and tested for repellency activity. Six compounds were screened according to long-term repellency assays and three compounds were screened according to short-term repellency assays. These assays were all conducted using Culex pipiens mosquitoes. The compounds tested are illustrated in Table 1. An array of carbonates was chosen and tested for repellency activity. Some compounds were screened according to long-term repellency assays and some compounds were screened according to short-term repellency assays. These assays were conducted using Culex pipiens mosquitoes or Aedes aegypti mosquitoes.

[3] = test system: Culex pipiens; experiment: Short-term spatial repellency, static air chamber; settings: short-term assay, 1 mL of 0.5% solution, dried 15 minutes

SMILES | short-term repellency (result in words) [1] | also measured
CC(C)=CCCC(C)CCOC(=O)Oc1ccccc1 (stereo not shown) [Compound 1f, Citronellyl phenyl carbonate] | weakest repellent effect | –
CC(C)=CCCC(C)CCOC(=O)OC(C)C (stereo not shown) [Compound 1c, Citronellyl isopropyl carbonate] | numerically, but not statistically, less repellent than 1a | –
CCOC(=O)OC1CC2CCC1(C)C2(C)C (stereo not shown) [Compound 7a, Bornyl ethyl carbonate] | only modest repellency | –
C=C(C)C1CCC(C)CC1OC(=O)OCC (stereo not shown) [Compound 3a, Ethyl isopulegyl carbonate] | – | long-term repellency (result in words) [2]: not able to repel mosquitoes very well at all
COC(=O)Oc1cc(C)ccc1C(C)C [Compound 4249, Thymyl methyl carbonate] | – | mortality seen in the repellency chamber [3]: significant mortality
CCOC(=O)Oc1cc(C)ccc1C(C)C [Compound 2a, Ethyl thymyl carbonate] | final estimated repellency was approximately the same | short-term repellency (result in words) ([1]; listed as Ethyl thymyl carbonate): excellent short-term repellent
CC(C)=CCCC(C)CCOC(=O)OCC(C)C (stereo not shown) [Compound 1d, Citronellyl isobutyl carbonate] | numerically, but not statistically, less repellent than 1a | –
COC(=O)OCCC(C)CCC=C(C)C (stereo not shown) [Compound 1b, Citronellyl methyl carbonate] | numerically, but not statistically, less repellent than 1a | –
Cc1ccc(C(C)C)c(OC(=O)OCC(C)C)c1 [Compound 2d, Isobutyl thymyl carbonate] | slower onset of high repellency; also recorded: final estimated repellency was approximately the same | –
CCOC(=O)OCCC(C)CCC=C(C)C (stereo not shown) [Compound 1a, Citronellyl ethyl carbonate] | numerically superior out of all the citronellyl carbonates | mosquitoes repelled in short-term repellency assay ([1]; 1 mL of 0.5% w/v acetone solution on filter paper, assay extending out to 2.5 hours): approximately 90%
CCOC(=O)OC1C=C(C)C2CC1C2(C)C (stereo not shown) [Compound 4251, Verbenyl ethyl carbonate] | – | mortality seen in the repellency chamber [3]: Very minimal amounts of mortality
